This assay addresses T1, recombinant ENOX2 (tNOX) (Homo sapiens, UniProt Q16206).
T1 sequence (Q16206 1-610): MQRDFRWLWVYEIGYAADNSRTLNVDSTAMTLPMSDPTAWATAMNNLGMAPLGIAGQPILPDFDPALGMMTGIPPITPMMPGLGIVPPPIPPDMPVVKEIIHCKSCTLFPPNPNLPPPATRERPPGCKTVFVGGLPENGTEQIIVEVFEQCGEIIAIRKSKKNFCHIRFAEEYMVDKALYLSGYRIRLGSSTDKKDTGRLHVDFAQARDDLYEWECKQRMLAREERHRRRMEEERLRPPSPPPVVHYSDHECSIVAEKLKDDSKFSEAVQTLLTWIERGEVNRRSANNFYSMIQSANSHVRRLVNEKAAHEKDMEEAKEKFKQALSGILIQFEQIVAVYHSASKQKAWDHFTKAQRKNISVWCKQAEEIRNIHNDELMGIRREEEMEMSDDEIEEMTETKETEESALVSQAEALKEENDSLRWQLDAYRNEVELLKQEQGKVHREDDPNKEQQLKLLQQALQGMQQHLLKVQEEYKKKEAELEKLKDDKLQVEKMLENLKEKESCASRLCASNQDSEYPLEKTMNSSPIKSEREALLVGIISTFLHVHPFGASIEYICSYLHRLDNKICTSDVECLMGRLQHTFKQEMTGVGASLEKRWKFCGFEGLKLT
Nature of the assay: NADH oxidation, A340. In kind it is biochemical.

Like-named read-outs stand apart in the source and are kept apart here.

The term EC50 denotes the concentration needed to bring the measured effect to its halfway point.

Regarding “2H-1-benzopyran-7-0,1,3-(4-hydroxyphenyl) [ME-143]”, the EC50 (150 µM NADH, 25 mM Tris-MES pH 7.2, 100 µM GSH, 1 mM KCN, 37 °C, inhibition) is around 50 nM.

For the molecule `Oc1ccc(C2=Cc3ccc(O)cc3OC2)cc1` [phenoxodiol], the EC50 is 330 ± 153 nM.

Source of the values: paper PMC7592813 (Oncology Research, 2014).
